{"source": "paper PMC9676650", "about": "“Binding pocket stabilization by high-throughput screening of yeast display libraries” (Frontiers in Molecular Biosciences, 2022)", "key": {"[1]": {"molecular_target": "T1, FKBP51 variant G64S (Homo sapiens, UniProt Q13451, G64S)", "T1 construct": "made in house; host or cells: E. coli BL21 (DE3)", "T1 sequence (Q13451 1-140 G64S)": "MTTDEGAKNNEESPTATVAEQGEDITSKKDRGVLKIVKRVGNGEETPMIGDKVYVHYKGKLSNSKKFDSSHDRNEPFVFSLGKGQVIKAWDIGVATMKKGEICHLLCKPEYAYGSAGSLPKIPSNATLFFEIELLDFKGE", "experiment": "Competitive fluorescence polarization assay, FKBP51 G64S", "settings": "10-40 nM FKBP51 G64S; 1 nM FK [431]-TA tracer; 30 min room temperature; fitted as KI in competitive binding model; read-out: Kd-value (ligand binding constant, competitive fluorescence polarization)", "excerpt": "(§1) All ligands and tracers used for fluorescence polarization assays had purities of more than 95%. The following ligands and tracers were used for fluorescence polarization and FACS screening experiments: •SAFit-FL tracer (1): Fluorescein conjugated analog of the iFit ligand class. •Mcyc-TA tracer (2): TAMRA conjugated macrocyclic ligand (5). •FK [431]-TA tracer (3): TAMRA conjugated FK [431] ligand (6). •SAFit1 ligand (4): analog of the iFit ligand class. •macrocyclic ligand (5):macrocyclic analog of the SAFit class ligands. •FK [431] ligand (6):bicyclic analog of the immunosuppressive drug FK506\n(§2) In order to rule out artifacts introduced by the fluorophore of the tracers, competitive fluorescence polarization assays were carried out. Therefore, a serial dilution of an FK [431] ligand (6), SAFit1 (4), or a macrocyclic ligand 5) (Supplementary Figure S8) in assay buffer was placed in a 384-well assay plate. To the compounds, a mixture of the respective protein (20 nM WT, 10–40 nM G64S or 80–100 nM D68Y) and 1 nM of the FK [431]-TA in assay buffer was added. After incubating for 30 min at room temperature, the fluorescence polarization was measured. […]"}, "[2]": {"molecular_target": "T2, FKBP51 variant D68Y (Homo sapiens, UniProt Q13451, D68Y)", "T2 construct": "made in house; host or cells: E. coli BL21 (DE3)", "T2 sequence (Q13451 1-140 D68Y)": "T1 sequence (Q13451 1-140 G64S) with S64G, D68Y", "experiment": "Competitive fluorescence polarization assay, FKBP51 D68Y", "settings": "80-100 nM FKBP51 D68Y; 1 nM FK [431]-TA tracer; 30 min room temperature; fitted as KI in competitive binding model; read-out: Kd-value (ligand binding constant, competitive fluorescence polarization)", "excerpt": "as §1, §2"}, "[3]": {"molecular_target": "T3, FKBP51 WT (Homo sapiens, UniProt Q13451)", "T3 construct": "made in house; host or cells: E. coli BL21 (DE3)", "T3 sequence (Q13451 1-140)": "T1 sequence (Q13451 1-140 G64S) with S64G", "experiment": "Competitive fluorescence polarization assay, FKBP51 WT", "settings": "20 nM FKBP51 WT; 1 nM FK [431]-TA tracer; 30 min room temperature; fitted as KI in competitive binding model; read-out: Kd-value (ligand binding constant, competitive fluorescence polarization)", "excerpt": "as §1, §2"}}, "note": "Substitutions are numbered along the chain they refer to.", "data": [{"smiles": "COc1ccc(CC[C@@H](OC(=O)[C@@H]2CCCCN2C(=O)[C@H](c2cc(OC)c(OC)c(OC)c2)C2CCCCC2)c2cccc(OCC(=O)O)c2)cc1OC", "note": "[SAFit1]", "values": [{"measurement": "Kd", "setting": "[1]", "value": "0.5 ± 0.2", "unit": "nM"}, {"measurement": "Kd", "setting": "[2]", "value": "0.2 ± 0.5", "unit": "nM"}, {"measurement": "Kd", "setting": "[3]", "value": "4.8 ± 0.4", "unit": "nM"}]}]}
